For orientation: AUC means the area under the concentration-time curve, a measure of exposure.

Each structure is given as a SMILES string.

The values that follow come from publication PMC8426472 (Molecular Therapy. Methods & Clinical Development, 2021).

For data set [1] the following is noted: cited from earlier work.
The next data set deals with ORM1F1. The note with it: cited from earlier work.
For data set [2] the following is noted: cited from earlier work. This is another data set of the same source.
The subject of a further data set is ORM1F2. The note with it: cited from earlier work.
For data set [3] the following is noted: cited from earlier work. This is another data set of the same source.
Data set [4] in a line: Plasma Mfp levels in cynomolgus monkeys. It is filed as in vivo, cynomolgus macaques (Macaca fascicularis).
A short description of data set [5]: Plasma Mfp levels in hAAG-expressing. In kind it is in vivo, rat.
Data set [6] is described as follows: Plasma Mfp levels in rats. In kind it is in vivo, rat.
Data set [7] has as its system ORM2-derived AAG variants. To be noted: cited from earlier work.
Data set [8] can be described thus: Brain tissue Mfp levels in rats. It is filed as in vivo, rat. To be noted: 3 × 20 mg/kg i.p., t = 144 h.
The next data set relates to GS-GDNF vector. Kind of data set: Striatal GDNF induction from AAV-5-GS-GDNF vector after Mfp application. In kind it is in vivo, rat.
A short description of data set [9]: Brain Mfp levels in cynomolgus monkeys. In kind it is in vivo, cynomolgus macaques (Macaca fascicularis). The note with it: monkey #1 versus monkeys #2 and #3, repeated oral Rtv 60 mg/kg + Mfp 100 mg/kg.
For data set [10] the following is noted: cited from earlier work. The source holds these as a separate data set.
Another data set has as its system ORM1S. To be noted: cited from earlier work.
For data set [11] the following is noted: cited from earlier work. The source holds these as a separate data set.

Consider `CC#C[C@]1(O)CC[C@H]2[C@@H]3CCC4=CC(=O)CCC4=C3[C@@H](c3ccc(N(C)C)cc3)C[C@@]21C` [Mfp, mifepristone], for which, in data set [1], the bioavailability in rats was 40%, the clearance in rats is recorded as 2.7 L/h/kg body weight and the “plasma half-life (T1/2) in rats” value is recorded as 4 h. Moreover, the “binding of Mfp by ORM1F1” value in the data set with ORM1F1 was “high affinity”. Besides, the solubility in water entry in data set [2] is on record as “very low”. Further, the “binding of Mfp by ORM1F2” value with ORM1F2 was “only low affinity”. Also, in data set [3], the bioavailability in humans was 40%, the clearance in human was 0.04 L/h/kg body weight and the “plasma half-life (T1/2) in human” value was 30 h. In addition, the “peak plasma Mfp level without Rtv” value in data set [4] (male cynomolgus monkeys, single oral 50 mg/kg Mfp) is given as 55 ng/mL. The “peak plasma Mfp level with Rtv co-application” value in [4] (male cynomolgus monkeys, single oral 50 mg/kg Mfp + 30 mg/kg Rtv) is listed as 150 ng/mL. In addition, in [4] (male, cynomolgus monkey, plasma, po, 50 mg/kg), the AUC came out at 655 ng·h/mL. Besides, the “plasma Mfp levels on all 3 days” value in [4] (monkeys #2 and #3, oral Mfp 100 mg/kg + Rtv 60 mg/kg on 3 consecutive days) is listed as “exceeding 500 ng/mL”. The “plasma Mfp levels in hAAG-expressing vs native animals at 50 h and 72 h” value in data set [5] (3 × 20 mg/kg Mfp i.p.) was “significantly elevated”. In [5] (single oral dose 50 mg/kg), the “plasma Mfp level at 48 h, hAAG-expressing rats” value is given as “still at maximum level” and the “plasma Mfp level at 72 h, hAAG-expressing rats” value is “about one-third of maximum levels”. The AUC in data set [6] (female, Wistar, rat, plasma, ip, AUC for plasma Mfp, − Rtv, female rats, 3 x 5 mg/kg Mfp i.p., without Rtv) came out at 8200 ng·h/mL. In addition, in data set [6] (native rats, single oral dose 50 mg/kg), the “drop of plasma Mfp levels at 48 h, native rats” value was “over 80%”. Moreover, in data set [6] (rats, 3 × 5 mg/kg Mfp i.p.), the peak plasma levels entry is on record as “about 150 ng/mL” and the “peak plasma levels, corresponding molar concentration” value is given as “about 0.3 μM”. Moreover, the “binding of Mfp by ORM2-derived AAG variants” value in [7] is “only weakly”. For the same compound, in [8], the “Mfp levels in brain tissue, native vs hAAG-expressing animals” value was “equal”. Also, the “effect of hAAG on GS-GDNF activation at lower dosage” value in the data set on GS-GDNF vector (3 × 5 mg/kg Mfp i.p., hAAG-expressing vs native rats) was “no negative effect”. The “striatal GDNF levels in hAAG-expressing vs native animals” value with GS-GDNF vector (3 × 20 mg/kg Mfp i.p.) is “similar”. Further, the “induced GDNF levels in aged (15 months) as compared to young (2 months) animals” value in the data set on GS-GDNF vector (female and male rats, 3 × 20 mg/kg Mfp i.p.) was 7–8 times. Further, the “striatal GDNF level, only Mfp, females” value in the data set with GS-GDNF vector (female rats, 3 x 5 mg/kg Mfp i.p., no Rtv) is “about 350 pg/mg”. Further, in the data set with GS-GDNF vector (female rats, 3 x 20 mg/kg Mfp i.p.), the “striatal GDNF level without Rtv co-application” value is reported as “about 2,000 pg/mg tissue”. The “striatal GDNF level after co-application of Rtv” value in the data set with GS-GDNF vector (female rats, 3 x 20 mg/kg Mfp i.p., Rtv 30 mg/kg i.p. or orally) is listed as “about 4,000 pg/mg tissue”. Besides, the “GDNF levels obtained with different solvent/carrier” value with GS-GDNF vector (female rats, oral 3 x 50 mg/kg pure substance in EtOH, sesame oil or ASV) is “very similar”. Besides, the “striatal GDNF level, Mfp + Rtv” value in the data set with GS-GDNF vector (male and female rats, 3 x 5 mg/kg Mfp i.p. + Rtv 30 mg/kg i.p.) is “about 4,000 pg/mg tissue”. Further, in the data set with GS-GDNF vector (male rats, 3 x 5 mg/kg Mfp i.p., no Rtv), the “striatal GDNF level, only Mfp, males” value is given as “about 100 pg/mg”. In addition, in data set [9], the “difference in brain Mfp levels after the same dosage” value is recorded as 6- to 7 fold. For the same compound, in data set [10], the bioavailability in monkeys is listed as 15%. Also, the “binding of Mfp by ORM1S” value in the data set with ORM1S is given as “high affinity”.

Consider `CC(C)c1nc(CN(C)C(=O)N[C@H](C(=O)N[C@@H](Cc2ccccc2)C[C@H](O)[C@H](Cc2ccccc2)NC(=O)OCc2cncs2)C(C)C)cs1` [Rtv, ritonavir], for which the “metabolic effects: insulin resistance” value in [11] is recorded as “moderate increase”. In addition, in the data set with GS-GDNF vector (female rats, Rtv 30 mg/kg i.p. + 3 x 5 mg/kg Mfp i.p.), the “boost of GDNF induction by Rtv, female rats” value was “about 10 fold”. Also, the “boost of GDNF induction by Rtv, male rats” value in the data set on GS-GDNF vector (male rats, Rtv 30 mg/kg i.p. + 3 x 5 mg/kg Mfp i.p.) was “about 40 fold”.
